Assay results taken from ChEMBL document CHEMBL3832542, “DailyMed|setid=00f30ef0-e65c-4b41-ad1b-afaab9bcfc7d | CLONIDINE- clonidine patch, extended release|Lake Erie Medical DBA Quality Care Products LLC”.

Tests used:
[1] = Pharmacokinetic parameters for Clonidine evaluated following oral or intravenous administration of Clonidine to subjects.; details: human, in vivo
[2] = Steady-state pharmacokinetic parameters for Clonidine evaluated following transdermal administration of 0.1, 0,2 and 0.3 mg doses of Clonidine to the upper outer arm for 7 days.; details: human, in vivo, topical or ocular

Clc1cccc(Cl)c1N=C1NCCN1 [CLONIDINE]
CL renal [1]: 102 mL/min | Vd [1]: 197 L | clearance [1]: 177 mL/min | half-life [1]: 12 to 16 h | bioavailability at 168 h [2]: 60% | half-life at 168 h [2]: 24 h
